Assays:
[1] = system: E. coli ML-35p; test: radial diffusion assay; assay type: cell-based; conditions: for potency relative to Clavanins A and B: E. coli ML-35P, radial diffusion (FIG. 5)
Experimental: (§1) In more detail, the filtrates (≈3.5 mg of protein by BCA) were concentrated to 2 ml by vacuum centrifugation in a Speed Vac Concentrator (Savant Instruments, Hicksville, N.Y.). Gel permeation chromatography was performed on a 1.2×65 cm BioGel P-10 gel permeation column with 5% acetic acid. Preparative continuous acid-urea PAGE electrophoresis was performed as described by Harwig, S. S. L. et al., Anal Biochem (1993) 208:382. Active fractions were pooled and purified by RP-HPLC a 4.6×250 mm Vydac C18 column, using various linear gradients of acetonitrile in 0.1% trifluoroacetic acid (TFA) or […],) heptafluorobutyric acid (HFBA). Throughout this multistep procedure, fractions were lyophilized, concentrated and tested for antimicrobial activity against Listeria monocytogenes strain EGD by a radial diffusion technique described in Lehrer, R. I. et al., J Immunol Methods (1991) 137:167. In these assays, the underlay gels contained 9 mM sodium phosphate and 1 mM sodium citrate buffer, 0.30 mg/ml of trypticase soy broth powder (BBL, Cockeysville, Md.) and […] at a final pH of 6.5.
(§2) In addition to Cecropin P1 and Magainin 1, the activity of Clavanin A(K) was also tested. Clavanin A(K) is identical to Clavanin A except that all of the histidine residues are replaced by lysine. […] The data are provided as minimal bacteriocidal concentrations expressed in μg/ml which are the X-intercepts of radial diffusion assays performed at pH 6.5 in an underlay that contained 10 mM buffer ([…]), 1% agarose and 0.3 mg trypticase soy powder/ml.
(§3) The effect of pH on antimicrobial activity against several organisms was tested in a pH range wherein histidine becomes comparably charged to lysine. FIGS. 6-8 show the results for native or synthetic Clavanin A and synthetic Clavanin A(K) using defensin NP-2 as a control, with respect to L. monocytogenes, E. coli, and C. albicans respectively. The radial diffusion assays were conducted as described in Examples 1 and 3 above.

[2] = system: L. monocytogenes EGD; test: radial diffusion assay; assay type: cell-based, Listeria monocytogenes; conditions: for potency relative to Clavanins A and B: L. monocytogenes Strain EGD, radial diffusion (FIG. 5)
Experimental: as §1, §2, §3

[3] = system: K. pneumoniae 2270; test: radial diffusion assay, minimal bactericidal concentration; assay type: cell-based; conditions: X-intercept of radial diffusion assay, pH 6.5
Experimental: as §1, §2

[4] = system: MRSA 28841; test: as above; assay type: cell-based; conditions: X-intercept of radial diffusion assay, pH 6.5
Experimental: as §1, §2

[5] = system: E. coli BAS 894; test: as above; assay type: cell-based; conditions: X-intercept of radial diffusion assay, pH 6.5
Experimental: as §1, §2

[6] = system: S. typhimurium 14028s; test: as above; assay type: cell-based; conditions: X-intercept of radial diffusion assay, pH 6.5
Experimental: as §1, §2

[7] = system: E. faecium 94.132 (VR); test: as above; assay type: cell-based; conditions: X-intercept of radial diffusion assay, pH 6.5
Experimental: as §1, §2

[8] = system: E. faecium; test: as above; assay type: cell-based; conditions: E. faecium (strain not given); X-intercept of radial diffusion assay, pH 6.5
Experimental: as §1, §2

[9] = system: P. aeruginosa MR 2133; test: as above; assay type: cell-based; conditions: X-intercept of radial diffusion assay, pH 6.5
Experimental: as §1, §2

[10] = system: P. aeruginosa MR 3007; test: as above; assay type: cell-based; conditions: X-intercept of radial diffusion assay, pH 6.5
Experimental: as §1, §2

[11] = system: E. faecalis CDC 21 (VR); test: as above; assay type: cell-based; conditions: X-intercept of radial diffusion assay, pH 6.5
Experimental: as §1, §2

[12] = system: S. aureus 930918-3; test: as above; assay type: cell-based; conditions: X-intercept of radial diffusion assay, pH 6.5
Experimental: as §1, §2

[13] = system: P. aeruginosa SBI-N; test: as above; assay type: cell-based; conditions: X-intercept of radial diffusion assay, pH 6.5
Experimental: as §1, §2

[14] = system: S. typhimurium 7953s; test: as above; assay type: cell-based; conditions: X-intercept of radial diffusion assay, pH 6.5
Experimental: as §1, §2

[15] = system: E. coli mcr 106; test: as above; assay type: cell-based; conditions: X-intercept of radial diffusion assay, pH 6.5
Experimental: as §1, §2

[16] = system: MRSA 30371; test: as above; assay type: cell-based; conditions: X-intercept of radial diffusion assay, pH 6.5
Experimental: as §1, §2

| Substance | potency relative to Clavanins A and B [1] | potency relative to Clavanins A and B [2] | minimal bacteriocidal concentration ([1]; E. coli ML-35p, X-intercept of radial diffusion assay, pH 6.5) | minimal bacteriocidal concentration [3] | minimal bacteriocidal concentration [4] | minimal bacteriocidal concentration [5] | minimal bacteriocidal concentration [6] | minimal bacteriocidal concentration [7] | minimal bacteriocidal concentration [8] | minimal bacteriocidal concentration [9] | minimal bacteriocidal concentration [10] | minimal bacteriocidal concentration [11] | minimal bacteriocidal concentration [12] | minimal bacteriocidal concentration [13] | minimal bacteriocidal concentration [14] | minimal bacteriocidal concentration [15] | minimal bacteriocidal concentration [16] | minimal bacteriocidal concentration ([2]; L. monocytogenes EGD, X-intercept of radial diffusion assay, pH 6.5) |
| --- | --- | --- | --- | --- | --- | --- | --- | --- | --- | --- | --- | --- | --- | --- | --- | --- | --- | --- |
| AFKLL GRIIH HVGNF VY'GFS HVF* [Clavanin D] | 3-5 fold | 3-5 fold |  |  |  |  |  |  |  |  |  |  |  |  |  |  |  |  |
| Cecropin P1: known antimicrobial peptide used for comparison (SWLSKTAKKLENSAKKRISEGIAIAIQGGPR; Cecropin-P1; UniProt P14661 14-44, looked up) |  |  | 0.64 µg/mL | 0.70 µg/mL | > 200 µg/mL | 0.41 µg/mL | 0.72 µg/mL | 7.5 µg/mL | 6.5 µg/mL | 0.51 µg/mL | 0.71 µg/mL | > 200 µg/mL | > 200 µg/mL | 0.44 µg/mL | 0.43 µg/mL | 0.54 µg/mL | > 200 µg/mL | 6.0 µg/mL |
| VFHLL GKIIH HVGNF VY'GFS HVF* [Clavanin C] | 3-5 fold | 3-5 fold |  |  |  |  |  |  |  |  |  |  |  |  |  |  |  |  |

— patent US6010876A, “Clavanins” (The Regents of the University of California, priority 1996, dated 2000)
